Patent publication US11919902B2, “Aryl-bipyridine amine derivatives as phosphatidylinositol phosphate kinase inhibitors” (HiberCell, Inc., priority 2017, dated 2024)

Key:
GST tagged PIP4KtypeIIA = biological target: T1, GST tagged PIP4KtypeIIA (Homo sapiens, UniProt P48426); assay: ADP-glo kinase assay PIP4K 2A (PIP4KtypeIIA inhibition assay); assay type: biochemical; settings: Table 3; compounds listed under IC50 range headings; 10 uM ATP, 0.5 nM PIP4KIIA
T1 construct: made in house; host or cells: E. coli
T1 sequence (P48426 1-406): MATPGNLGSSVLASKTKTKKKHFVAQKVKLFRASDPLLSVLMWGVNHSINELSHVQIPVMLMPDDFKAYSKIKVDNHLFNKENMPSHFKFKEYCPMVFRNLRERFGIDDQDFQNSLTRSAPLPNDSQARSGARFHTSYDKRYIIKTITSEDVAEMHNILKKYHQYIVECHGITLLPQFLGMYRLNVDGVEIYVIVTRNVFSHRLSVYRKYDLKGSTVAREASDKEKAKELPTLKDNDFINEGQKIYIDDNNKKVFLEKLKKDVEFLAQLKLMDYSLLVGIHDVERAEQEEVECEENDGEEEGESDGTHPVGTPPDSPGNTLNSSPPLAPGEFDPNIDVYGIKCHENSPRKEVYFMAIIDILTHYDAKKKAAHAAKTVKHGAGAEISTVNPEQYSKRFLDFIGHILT
Method in brief: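 Read-out was ADP-Glo luminescence converted to μM ADP, with IC50 plotted as % of no-inhibitor activity against log concentration. Reactions contained 10 μM ATP, 80 μM PI5P with DOPE carrier, and 0.5 nM GST-tagged PIP4KIIA (E. coli-expressed) in pH 7.3 HEPES/MgCl2 buffer with 5% DMSO. Enzyme and compound (≤4.8 μM) were preincubated 1 h at 27 °C before the 1 h reaction.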

[1] = biological target: T2, PIP4K2A (full length protein, SignalChem) (Homo sapiens, UniProt P48426); assay: Kinase Assay PIP4K2 A (Sprint); ADP-Glo biochemical assay; settings: Table 2; compounds listed under IC50 range headings
T2 construct: 4 nM PIP4K2A (full length protein, SignalChem); purchased SignalChem
T2 sequence (P48426 1-406): T1 sequence (P48426 1-406)
Method in brief: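 ADP-Glo luminescence detected ADP after a 1 h RT reaction started with 60 μM ATP solution. Before that, full-length PIP4K2A (4 nM in mix) with 100 μM PI(5)P diC8 was pre-incubated 15 min with compounds in MOPS buffer pH 7.2, 25 mM MgCl2, 0.005% Tween 20. IC50 derived from % inhibition relative to DMSO over 10 three-fold concentrations.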

GST tagged PIP4KtypeIIB = biological target: T3, GST tagged PIP4KtypeIIB (Homo sapiens, UniProt P78356); assay: Trans-FI P kinase assay PIP4K2B (PIP4KtypeIIB inhibition assay); assay type: biochemical; settings: Table 4; compounds listed under IC50 range headings; 100 uM GTP, 5 nM PIP4KIIB; read-out: Trans-FI P kinase assays: PIP4K2B IC50
T3 construct: made in house; host or cells: E. coli
T3 sequence (P78356 1-416): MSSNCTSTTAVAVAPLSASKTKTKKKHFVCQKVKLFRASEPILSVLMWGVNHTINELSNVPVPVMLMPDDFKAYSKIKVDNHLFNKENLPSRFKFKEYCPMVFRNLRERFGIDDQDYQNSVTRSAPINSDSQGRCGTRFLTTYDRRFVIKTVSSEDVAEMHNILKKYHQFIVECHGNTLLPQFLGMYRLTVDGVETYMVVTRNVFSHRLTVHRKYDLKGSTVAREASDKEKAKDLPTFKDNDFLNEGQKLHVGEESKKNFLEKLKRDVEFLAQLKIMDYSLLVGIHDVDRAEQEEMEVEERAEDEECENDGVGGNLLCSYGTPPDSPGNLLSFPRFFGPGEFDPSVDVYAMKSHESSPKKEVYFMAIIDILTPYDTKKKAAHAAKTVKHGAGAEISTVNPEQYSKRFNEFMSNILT
Method in brief: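 Transcreener FI fluorescence, converted to GDP by calibration, tracked product from 5 nM E. coli-expressed GST-PIP4KIIB acting on 80 uM PI5P (DOPE carrier) with 100 uM GTP. Compound (top 4.8 uM final, 5% DMSO) was preincubated 1 h at 27 C before the 2 h reaction; IC50 fitted from residual activity.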

SMILES | IC50 (GST tagged PIP4KtypeIIA) | IC50 [1] | IC50 (GST tagged PIP4KtypeIIB)
CN(C)C(=O)c1ccc(-c2cc(-c3ccnc4[nH]c(C(=O)NCc5ccncc5)cc34)cnc2N)nc1 [Example 135, 4-(2′-amino-5-(dimethylcarbamoyl)-[2,3′-bipyridin]-5′-yl)-N-(pyridin-4-ylmethyl)-1H-pyrrolo[2,3-b]pyridine-2-carboxamide] | 0.1 to 1 µM | 0.005 to 0.1 µM | 0.01 to 0.1 µM
COC(=O)c1cc2c(-c3cnc(N)c(-c4ccc(C(=O)N(C)C)cn4)c3)ccnc2[nH]1 [Example 126, methyl 4-(2′-amino-5-(dimethylcarbamoyl)-[2,3′-bipyridin]-5′-yl)-1H-pyrrolo[2,3-b]pyridine-2-carboxylate] | 0.01 to 0.1 µM | 0.005 to 0.1 µM | 0.01 to 0.1 µM
COCCNC(=O)c1cc2c(-c3cnc(N)c(-c4ccc(C(=O)N(C)C)cn4)c3)ccnc2[nH]1 [Example 132, 4-(2′-amino-5-(dimethylcarbamoyl)-[2,3′-bipyridin]-5′-yl)-N-(2-methoxyethyl)-1H-pyrrolo[2,3-b]pyridine-2-carboxamide] | 0.1 to 1 µM | 0.1 to 1 µM | 0.01 to 0.1 µM
COCCNC(=O)c1cc2c(-c3cncc(-c4ccc(N5CCCC5=O)cc4)c3)ccnc2o1 [Example 80, N-(2-methoxyethyl)-4-(5-(4-(2-oxopyrrolidin-1-yl)phenyl)pyridin-3-yl)furo[2,3-b]pyridine-2-carboxamide] | 0.1 to 1 µM | 0.005 to 0.1 µM | 0.01 to 0.1 µM
CN(C)C(=O)c1ccc(-c2cc(-c3ccnc4[nH]c(C(=O)N(C)C)cc34)cnc2N)nc1 [Example 127, 4-(2′-amino-5-(dimethylcarbamoyl)-[2,3′-bipyridin]-5′-yl)-N,N-dimethyl-1H-pyrrolo[2,3-b]pyridine-2-carboxamide] | 0.1 to 1 µM | 0.005 to 0.1 µM | 0.01 to 0.1 µM
CN(C)C(=O)c1cnc2n[nH]c(-c3cncc(-c4ccc(N5CCCC5=O)cc4)c3)c2c1 [Example 227, N,N-dimethyl-3-(5-(4-(2-oxopyrrolidin-1-yl)phenyl)pyridin-3-yl)-2H-pyrazolo[3,4-b]pyridine-5-carboxamide] | 0.1 to 1 µM | 0.005 to 0.1 µM | 0.1 to 1 µM
Cc1[nH]c2ncc(C(=O)N(C)C)cc2c1-c1cncc(-c2ccc(N3CCCC3=O)cc2)c1 [Example 250, N,N,2-trimethyl-3-(5-(4-(2-oxopyrrolidin-1-yl)phenyl)pyridin-3-yl)-1H-pyrrolo[2,3-b]pyridine-5-carboxamide] | 0.1 to 1 µM | 0.005 to 0.1 µM | 0.1 to 1 µM
Cc1c(-c2ccc(N3CCCC3=O)cc2)cncc1-c1ccnc2[nH]c(C(=O)N(C)C)cc12 [Example 173, N,N-dimethyl-4-(4-methyl-5-(4-(2-oxopyrrolidin-1-yl)phenyl)pyridin-3-yl)-1H-pyrrolo[2,3-b]pyridine-2-carboxamide] | 0.1 to 1 µM | 0.005 to 0.1 µM | 0.1 to 1 µM
CN(C)C(=O)c1ccc(-c2cncc(-c3ccncc3)c2)cc1 [Example 1, 4-([3,4′-bipyridin]-5-yl)-N,N-dimethylbenzamide] | > 5 µM | < 5 µM | > 5 µM
CN(C)C(=O)c1ccc(-c2cc(-c3ccnc4[nH]c(C(=O)N5CCNCC5)cc34)cnc2N)nc1 [Example 140, 2′-amino-N,N-dimethyl-5′-(2-(piperazine-1-carbonyl)-1H-pyrrolo[2,3-b]pyridin-4-yl)-[2,3′-bipyridine]-5-carboxamide] | 0.1 to 1 µM | 0.1 to 1 µM | 0.1 to 1 µM

Now from value to compound:

IC50 (GST tagged PIP4KtypeIIA) | IC50 [1] | IC50 (GST tagged PIP4KtypeIIB) | SMILES
2.5 to 5 µM | 1 to 2.5 µM | > 5 µM | Nc1ncc(-c2cccc3nccn23)cc1-c1ccc(N2CCCC2=O)cn1 [Example 25, 1-(2′-amino-5′-(imidazo[1,2-a]pyridin-5-yl)-[2,3′-bipyridin]-5-yl)pyrrolidin-2-one]
0.1 to 1 µM | 0.1 to 1 µM | 0.1 to 1 µM | O=C1CCCN1c1ccc(-c2cncc(-c3ccnc4c3cnn4CCO)c2)cc1 [Example 44, 1-(4-(5-(1-(2-hydroxyethyl)-1H-pyrazolo[3,4-b]pyridin-4-yl)pyridin-3-yl)phenyl)pyrrolidin-2-one]
> 5 µM | 0.1 to 1 µM | > 5 µM | CS(=O)(=O)N1Cc2nccc(-c3cncc(-c4ccc(N5CCCC5=O)cc4)c3)c2C1 [Example 64, 1-(4-(5-(6-(methylsulfonyl)-6,7-dihydro-5H-pyrrolo[3,4-b]pyridin-4-yl)pyridin-3-yl)phenyl)pyrrolidin-2-one]
0.1 to 1 µM | 0.005 to 0.1 µM | 0.1 to 1 µM | Cn1ncc2c(-c3cncc(-c4ccc(N5CCCC5=O)cc4)c3)c[nH]c(=O)c21 [Example 158, 1-methyl-4-(5-(4-(2-oxopyrrolidin-1-yl)phenyl)pyridin-3-yl)-1,6-dihydro-7H-pyrazolo[3,4-c]pyridin-7-one]
0.1 to 1 µM | 0.1 to 1 µM | 0.1 to 1 µM | CN(C)C(=O)c1ccc(-c2cc(-c3ccnc4ncccc34)cnc2N)nc1 [Example 111, 2′-amino-N,N-dimethyl-5′-(1,8-naphthyridin-4-yl)-[2,3′-bipyridine]-5-carboxamide]
> 5 µM | 2.5 to 5 µM | 2.5 to 5 µM | Cc1ncc(-c2ccncc2)cc1-c1ccc(N2CCCC2=O)cc1 [Example 164, 1-(4-(6-methyl-3,4′-bipyridin-5-yl)phenyl)pyrrolidin-2-one]
0.1 to 1 µM | 0.005 to 0.1 µM | 0.1 to 1 µM | Cn1cc2c(-c3cncc(-c4ccc(N5CCCC5=O)cc4)c3)c[nH]c(=O)c2n1 [Example 159, 2-methyl-4-(5-(4-(2-oxopyrrolidin-1-yl)phenyl)pyridin-3-yl)-2,6-dihydro-7H-pyrazolo[3,4-c]pyridin-7-one]
0.1 to 1 µM | 0.005 to 0.1 µM | 0.1 to 1 µM | COc1ncc(-c2cncc(-c3ccc(N4CCCC4=O)cc3)c2)c2c[nH]nc12 [Example 270, 1-(4-(5-(7-methoxy-2H-pyrazolo[3,4-c]pyridin-4-yl)pyridin-3-yl)phenyl)pyrrolidin-2-one]
> 5 µM | < 5 µM | > 5 µM | CC(=O)N(C)c1cc(-c2cncc(-c3ccc(N4CCCC4=O)cc3)c2)ccn1 [Example 57, N-methyl-N-(5-(4-(2-oxopyrrolidin-1-yl)phenyl)-[3,4′-bipyridin]-2′-yl)acetamide]
0.1 to 1 µM | 0.005 to 0.1 µM | 0.1 to 1 µM | CN(C)C(=O)c1ccc(-c2cc(-c3ccnc4[nH]c(=O)[nH]c34)cnc2N)nc1 [Example 113, 2′-amino-N,N-dimethyl-5′-(2-oxo-2,3-dihydro-1H-imidazo[4,5-b]pyridin-7-yl)-[2,3′-bipyridine]-5-carboxamide]
0.1 to 1 µM | 0.1 to 1 µM | 0.1 to 1 µM | Cn1ccc2c(-c3cncc(-c4ccc(N5CCCC5=O)cc4)c3)cn(C)c2c1=O [Example 243, 1,6-dimethyl-3-(5-(4-(2-oxopyrrolidin-1-yl)phenyl)pyridin-3-yl)-1,6-dihydro-7H-pyrrolo[2,3-c]pyridin-7-one]
0.01 to 0.1 µM | 0.005 to 0.1 µM | 0.1 to 1 µM | Nc1ncc(-c2c[nH]c3ncc(Cl)cc23)cc1-c1ccc(N2CCCC2=O)cn1 [Example 26, 1-(2′-amino-5′-(5-chloro-1H-pyrrolo[2,3-b]pyridin-3-yl)-[2,3′-bipyridin]-5-yl)pyrrolidin-2-one]
0.01 to 0.1 µM | 0.005 to 0.1 µM | 0.01 to 0.1 µM | COC(=O)c1cc2c(-c3cncc(-c4ccc(N5CCCC5=O)cc4)c3C)ccnc2[nH]1 [Example 175, methyl 4-(4-methyl-5-(4-(2-oxopyrrolidin-1-yl)phenyl)pyridin-3-yl)-1H-pyrrolo[2,3-b]pyridine-2-carboxylate]
